Measurements reported in ChEMBL document CHEMBL1201862, “PubChem BioAssay data set” (2004).
Calls of active or inactive are those of the source.

Columns and labels:
[1] = biological target: Induced myeloid leukemia cell differentiation protein Mcl-1 (Homo sapiens, UniProt Q07820); assay type: functional
HeLa = assay: ATP-based viability loss in HeLa cells – cell-based, CellTiter-Glo luminescence, cherry-pick samples, cytotoxicity control for MITF activator project, dose response (AID 540259); assay type: functional; conditions: Homo sapiens
Protein skinhead-1 = biological target: T1, Protein skinhead-1 (Caenorhabditis elegans, UniProt P34707); assay type: functional
T1 sequence (P34707 whole entry): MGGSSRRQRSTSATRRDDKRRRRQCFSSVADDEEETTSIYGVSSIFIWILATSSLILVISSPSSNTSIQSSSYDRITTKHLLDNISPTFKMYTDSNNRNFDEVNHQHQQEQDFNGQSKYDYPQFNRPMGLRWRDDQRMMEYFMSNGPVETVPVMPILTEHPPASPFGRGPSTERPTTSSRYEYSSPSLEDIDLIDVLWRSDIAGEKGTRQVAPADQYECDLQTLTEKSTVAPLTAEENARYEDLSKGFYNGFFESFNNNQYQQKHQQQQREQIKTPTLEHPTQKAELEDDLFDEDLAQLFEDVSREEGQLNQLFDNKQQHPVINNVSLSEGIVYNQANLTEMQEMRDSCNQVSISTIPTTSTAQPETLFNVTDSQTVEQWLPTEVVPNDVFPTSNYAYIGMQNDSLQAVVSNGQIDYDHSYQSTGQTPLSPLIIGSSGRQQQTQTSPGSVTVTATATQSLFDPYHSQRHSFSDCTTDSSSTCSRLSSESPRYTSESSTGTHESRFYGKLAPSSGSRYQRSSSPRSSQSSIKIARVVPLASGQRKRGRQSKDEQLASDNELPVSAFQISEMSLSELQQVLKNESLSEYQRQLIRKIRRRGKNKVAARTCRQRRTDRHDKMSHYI

[2] = biological target: Heat shock protein HSP 90-alpha (Homo sapiens, UniProt P07900); assay type: functional, organism-based
[3] = biological target: T2, Short transient receptor potential channel 4 (Mus musculus, UniProt Q9QUQ5); assay: calcium entry via TRPC4 opening agents – cell-based, HEK293 TRPC4/mu-opioid, Fluo-4 calcium, dose response (AID 434937); assay type: functional
T2 sequence (Q9QUQ5 whole entry): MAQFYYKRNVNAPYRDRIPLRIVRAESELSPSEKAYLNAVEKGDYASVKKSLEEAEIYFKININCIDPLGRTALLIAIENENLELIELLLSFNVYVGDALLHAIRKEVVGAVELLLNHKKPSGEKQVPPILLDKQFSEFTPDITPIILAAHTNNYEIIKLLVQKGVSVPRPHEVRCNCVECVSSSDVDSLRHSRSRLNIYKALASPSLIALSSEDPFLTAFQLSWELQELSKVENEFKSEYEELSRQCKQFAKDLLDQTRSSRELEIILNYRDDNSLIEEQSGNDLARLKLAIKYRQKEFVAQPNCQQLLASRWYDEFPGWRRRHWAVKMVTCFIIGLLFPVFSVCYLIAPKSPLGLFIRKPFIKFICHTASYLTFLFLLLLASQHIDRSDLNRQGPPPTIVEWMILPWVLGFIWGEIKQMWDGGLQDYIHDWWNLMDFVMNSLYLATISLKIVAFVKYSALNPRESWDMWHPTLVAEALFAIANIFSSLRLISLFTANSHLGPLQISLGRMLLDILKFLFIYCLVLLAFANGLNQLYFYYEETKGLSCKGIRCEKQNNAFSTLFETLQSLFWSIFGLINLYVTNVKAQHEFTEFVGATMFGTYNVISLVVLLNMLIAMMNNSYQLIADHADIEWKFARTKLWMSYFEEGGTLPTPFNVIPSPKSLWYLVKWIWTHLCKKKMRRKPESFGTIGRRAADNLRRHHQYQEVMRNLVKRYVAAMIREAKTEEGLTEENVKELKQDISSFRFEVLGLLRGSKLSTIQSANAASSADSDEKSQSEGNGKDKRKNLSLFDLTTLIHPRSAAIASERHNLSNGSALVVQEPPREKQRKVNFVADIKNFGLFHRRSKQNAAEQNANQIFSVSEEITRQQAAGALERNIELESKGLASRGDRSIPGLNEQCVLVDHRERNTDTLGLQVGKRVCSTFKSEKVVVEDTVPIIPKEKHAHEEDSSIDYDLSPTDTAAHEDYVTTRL

Large T antigen = Large T antigen (Simian virus 40, UniProt P03070); assay type: functional, Betapolyomavirus macacae;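 further: Confirmatory-stage PubChem screen for compounds that inhibit SV40 T antigen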
[4] = biological target: T3, Carboxy-terminal domain RNA polymerase II polypeptide A small phosphatase 1 (Homo sapiens, UniProt Q9GZU7); assay: CTDSP1 inhibitors, concentration-response, biochemical, absorbance readout, ultra-high-throughput screen actives (AID 540297); assay type: functional
T3 sequence (Q9GZU7 whole entry): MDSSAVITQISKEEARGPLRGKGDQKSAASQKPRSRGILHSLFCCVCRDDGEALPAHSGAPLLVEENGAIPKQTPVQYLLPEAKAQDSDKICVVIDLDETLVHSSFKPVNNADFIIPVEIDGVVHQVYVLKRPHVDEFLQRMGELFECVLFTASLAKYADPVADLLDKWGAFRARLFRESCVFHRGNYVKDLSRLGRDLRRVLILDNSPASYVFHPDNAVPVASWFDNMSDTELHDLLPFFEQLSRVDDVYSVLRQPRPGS

Paired box protein Pax-8 = Paired box protein Pax-8 (Homo sapiens, UniProt Q06710); assay: PAX8 transcriptional activity inhibition in RMG-I – RMG-I cells, luciferase, cherry-pick, dose response (AID 687027); assay type: functional, cell-based;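 further: luciferase reporter driven by Pax8 target thyroperoxidase promoter measured by SteadyGlo luminescence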
[5] = OVCAR8 cell viability loss – plate reader, dry powder samples, PAX8 project, dose response (AID 743197); assay type: functional, cell-based; conditions: OVCAR-8
[6] = HIV-1 AD8 envelope cell-cell fusion blockers – cherry-pick, dose response (AID 652062); assay type: functional, cell-based;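 further: luciferase signal from cell-cell fusion driven by HIV-1 clade B AD8 Env; potency is for inhibitors of fusion seen as a drop in luminescence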
[7] = blockers of HIV-1 envelope-mediated cell-cell fusion – cherry-pick, dose response (AID 652057); assay type: functional, cell-based
[8] = OVCAR-3 cell viability loss – plate reader, dry powder samples, PAX8 inhibitor project, dose response (AID 743044); assay type: functional, cell-based
[9] = biological target: DNA dC->dU-editing enzyme APOBEC-3A (Homo sapiens, UniProt P31941); assay: Dose Response confirmation of small molecule APOBEC3A DNA Deaminase Inhibitors via a fluorescence-based single-stranded DNA deaminase assay. [Related pubchem assays (depositor defined):AID493011, AID493024]; assay type: functional
[10] = viability of uninfected HEp-2 cells – cell-based, HTS, cytotoxicity control for RSV inhibitor project, dose response (AID 2410); assay type: functional; conditions: human respiratory syncytial virus
[11] = biological target: T4, DNA dC->dU-editing enzyme APOBEC-3G (Homo sapiens, UniProt Q9HC16); assay type: functional
Nonstructural protein 1 = Nonstructural protein 1 (Influenza A virus, UniProt Q194T2); assay type: functional, Influenza A virus (A/California/07/2009(H1N1))
[12] = A cytotoxicity screen of small molecule inhibitors of the PhoP region in Salmonella typhi identified in the primary screen. [Related pubchem assays: 1850, 1864, 1985 ]; assay type: functional
Genome polyprotein = Genome polyprotein (dengue virus type 2, UniProt P29990); assay: flavivirus cap methylation enzyme inhibition – biochemical, confirmation dose response, primary screen (AID 588689); assay type: functional
Fatty acid synthase = Fatty acid synthase (Homo sapiens, UniProt P49327); assay: inhibition of human FAS-TE enzyme activity – biochemical, kinetic fluorescence intensity, dose response (AID 624326); assay type: functional;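 further: rate of fluorescence rise from hydrolysis of a fluorogenic O-methyl fluorescein ester substrate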
[13] = biological target: T4, DNA dC->dU-editing enzyme APOBEC-3G; assay: Dose Response confirmation of small molecule APOBEC3G DNA Deaminase Inhibitors via a fluorescence-based single-stranded DNA deaminase assay. [Related pubchem assays (depositor defined):AID493012, AID493028]; assay type: functional

Sequence of Paired box protein Pax-8 (Q06710 whole entry): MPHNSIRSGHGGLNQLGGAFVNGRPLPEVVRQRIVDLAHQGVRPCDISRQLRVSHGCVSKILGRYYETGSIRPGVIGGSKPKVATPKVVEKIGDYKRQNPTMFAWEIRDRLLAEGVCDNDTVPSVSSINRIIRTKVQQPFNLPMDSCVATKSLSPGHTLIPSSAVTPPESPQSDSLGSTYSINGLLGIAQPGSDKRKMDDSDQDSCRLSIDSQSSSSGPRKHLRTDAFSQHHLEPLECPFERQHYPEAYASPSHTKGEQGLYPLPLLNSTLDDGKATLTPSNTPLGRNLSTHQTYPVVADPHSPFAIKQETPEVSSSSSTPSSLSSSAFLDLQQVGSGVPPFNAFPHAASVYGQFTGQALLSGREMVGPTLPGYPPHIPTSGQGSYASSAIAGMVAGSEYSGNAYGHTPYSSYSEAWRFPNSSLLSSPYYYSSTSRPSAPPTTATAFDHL
Sequence of Induced myeloid leukemia cell differentiation protein Mcl-1 (Q07820 whole entry): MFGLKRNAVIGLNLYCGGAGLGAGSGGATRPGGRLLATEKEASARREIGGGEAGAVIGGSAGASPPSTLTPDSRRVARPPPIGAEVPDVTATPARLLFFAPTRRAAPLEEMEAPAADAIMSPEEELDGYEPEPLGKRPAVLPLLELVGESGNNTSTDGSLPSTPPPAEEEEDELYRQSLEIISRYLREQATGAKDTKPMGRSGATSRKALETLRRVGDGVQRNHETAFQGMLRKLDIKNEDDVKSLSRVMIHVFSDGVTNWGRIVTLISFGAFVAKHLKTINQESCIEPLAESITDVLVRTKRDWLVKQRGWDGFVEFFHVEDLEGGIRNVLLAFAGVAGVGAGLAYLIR
Sequence of DNA dC->dU-editing enzyme APOBEC-3A (P31941 whole entry): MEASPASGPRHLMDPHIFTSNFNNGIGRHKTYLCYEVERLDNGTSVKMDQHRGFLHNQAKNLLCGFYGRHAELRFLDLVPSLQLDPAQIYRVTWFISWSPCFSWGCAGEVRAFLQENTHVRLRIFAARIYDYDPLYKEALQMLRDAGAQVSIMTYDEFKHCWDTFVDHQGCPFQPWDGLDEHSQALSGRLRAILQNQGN
T4 sequence (Q9HC16 whole entry): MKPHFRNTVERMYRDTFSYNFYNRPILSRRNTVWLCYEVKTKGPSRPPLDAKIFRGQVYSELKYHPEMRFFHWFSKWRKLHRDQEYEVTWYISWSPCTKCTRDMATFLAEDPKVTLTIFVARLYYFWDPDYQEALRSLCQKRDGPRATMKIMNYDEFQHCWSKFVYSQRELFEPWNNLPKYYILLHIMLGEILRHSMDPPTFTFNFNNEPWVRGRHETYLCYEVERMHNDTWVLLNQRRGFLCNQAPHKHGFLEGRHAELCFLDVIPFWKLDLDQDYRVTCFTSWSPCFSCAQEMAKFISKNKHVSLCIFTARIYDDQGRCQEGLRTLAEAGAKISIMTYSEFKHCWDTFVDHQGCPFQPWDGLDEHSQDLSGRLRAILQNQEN
Sequence of Genome polyprotein (P29990 2492-3391 limits assumed): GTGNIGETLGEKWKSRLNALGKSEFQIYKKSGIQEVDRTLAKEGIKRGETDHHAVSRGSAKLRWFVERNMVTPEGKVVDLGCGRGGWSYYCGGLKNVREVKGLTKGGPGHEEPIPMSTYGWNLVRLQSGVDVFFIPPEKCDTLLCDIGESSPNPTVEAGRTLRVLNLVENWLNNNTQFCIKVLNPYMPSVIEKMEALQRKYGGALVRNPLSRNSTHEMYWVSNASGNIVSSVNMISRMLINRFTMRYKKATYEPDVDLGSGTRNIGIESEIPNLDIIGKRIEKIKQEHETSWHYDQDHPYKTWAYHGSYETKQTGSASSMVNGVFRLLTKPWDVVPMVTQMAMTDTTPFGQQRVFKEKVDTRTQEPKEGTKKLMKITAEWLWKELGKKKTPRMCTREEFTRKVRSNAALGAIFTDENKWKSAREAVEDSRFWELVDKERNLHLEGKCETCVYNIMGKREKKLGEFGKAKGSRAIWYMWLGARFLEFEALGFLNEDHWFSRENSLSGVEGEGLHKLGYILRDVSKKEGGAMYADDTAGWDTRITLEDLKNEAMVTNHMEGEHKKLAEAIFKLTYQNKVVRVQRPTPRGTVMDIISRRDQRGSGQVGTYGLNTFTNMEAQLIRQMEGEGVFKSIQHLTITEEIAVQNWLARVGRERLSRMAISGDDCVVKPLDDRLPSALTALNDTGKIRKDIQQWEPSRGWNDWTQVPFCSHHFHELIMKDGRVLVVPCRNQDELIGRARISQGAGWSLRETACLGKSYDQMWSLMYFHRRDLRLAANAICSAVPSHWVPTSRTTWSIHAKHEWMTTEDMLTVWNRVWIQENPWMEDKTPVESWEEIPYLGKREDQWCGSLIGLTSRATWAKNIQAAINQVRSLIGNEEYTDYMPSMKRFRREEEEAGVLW
Sequence of Large T antigen (P03070 whole entry, the tested form may be a part): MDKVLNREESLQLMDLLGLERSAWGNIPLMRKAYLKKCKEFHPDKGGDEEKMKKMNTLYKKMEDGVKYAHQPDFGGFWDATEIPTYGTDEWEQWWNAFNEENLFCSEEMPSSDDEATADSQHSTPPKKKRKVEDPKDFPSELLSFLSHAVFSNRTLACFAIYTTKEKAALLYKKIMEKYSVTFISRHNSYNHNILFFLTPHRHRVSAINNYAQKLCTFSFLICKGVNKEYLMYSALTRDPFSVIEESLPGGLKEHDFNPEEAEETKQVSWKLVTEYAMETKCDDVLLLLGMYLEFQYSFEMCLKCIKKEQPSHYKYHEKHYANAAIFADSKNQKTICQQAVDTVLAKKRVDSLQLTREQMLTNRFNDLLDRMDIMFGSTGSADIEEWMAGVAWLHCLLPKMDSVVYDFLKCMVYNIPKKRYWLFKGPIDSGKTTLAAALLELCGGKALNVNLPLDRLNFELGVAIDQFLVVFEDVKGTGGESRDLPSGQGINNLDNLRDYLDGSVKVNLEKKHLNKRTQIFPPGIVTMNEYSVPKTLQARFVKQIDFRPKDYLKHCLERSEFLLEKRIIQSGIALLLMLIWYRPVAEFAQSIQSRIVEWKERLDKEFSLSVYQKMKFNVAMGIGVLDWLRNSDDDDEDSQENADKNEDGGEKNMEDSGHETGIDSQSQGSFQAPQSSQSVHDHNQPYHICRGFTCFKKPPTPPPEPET
Sequence of Nonstructural protein 1 (Q194T2 whole entry): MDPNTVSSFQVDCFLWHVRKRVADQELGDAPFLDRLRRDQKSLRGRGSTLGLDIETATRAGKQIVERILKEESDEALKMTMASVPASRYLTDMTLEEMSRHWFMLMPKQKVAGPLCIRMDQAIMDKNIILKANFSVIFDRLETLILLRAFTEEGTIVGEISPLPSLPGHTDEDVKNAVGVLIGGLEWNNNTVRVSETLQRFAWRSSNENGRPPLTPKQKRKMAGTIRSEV

O=C1CCCCC1C(=O)c1ccccc1 (configuration not stated)
IC50 [1]: 0.719 µM (not active)

CCC(=O)Nc1ccc(-c2ccc(N3CCC(C)CC3)nn2)cc1
AC50 (HeLa): 146 µM (active)

O=C(Nc1ccc(OC(F)F)c(Cl)c1)c1ccccn1
AC50 (HeLa): 99.7 µM (active) | IC50 (Protein skinhead-1): 51.6 µM (inactive)

O=C1C=CC(=Nc2ccc(F)cc2)O1
AC50 [2]: 2.25 µM (active)

CCCc1cc(C(=O)Nc2cc(Cl)ccc2O)no1
AC50 (HeLa): > 350 µM (inactive)

CCc1ccc(N2Cc3ccccc3C2)cc1
AC50 (HeLa): 43.5 µM (active)

COc1ccc(C)c2s/c(=N\C(=O)c3ccc(C(C)=O)cc3)n(C)c12
AC50 (HeLa): 40.9 µM (active)

c1ccc2oc(N3CCNCC3)nc2c1
EC50 [3]: 668 nM (active)

Cc1ccc(N2C(=O)NC(=O)/C(=C/c3ccc(-c4ccc(C(=O)O)c(Cl)c4)o3)C2=O)cc1
IC50 (Large T antigen): 32.7 µM (active) | IC50 [4]: 5.49 µM (active)

CCOC(=O)C1(CCc2ccccc2)CCN(Cc2c(O)cccc2OC)CC1
EC50 [3]: 299 nM (active)

C[C@H](NC(=O)C[C@@H]1C[C@@H]2c3cc(NC(=O)Nc4ccc(C(F)(F)F)cc4)ccc3O[C@@H]2[C@@H](CO)O1)c1ccccc1
AC50 (Paired box protein Pax-8): 13.2 µM (active) | AC50 [5]: 36.8 µM (active) | AC50 [6]: 27.7 µM (active) | AC50 [7]: 20.6 µM (active) | AC50 [8]: 37.9 µM (active)

Cc1ccc(C2N(c3ccc(Cl)c(Cl)c3)C(=O)C3CCCN32)o1 (configuration not stated)
EC50 [3]: 4220 nM (active)

CN(C)/C=C/C=C1C(=O)CCCC1=O
IC50 [4]: 7.28 µM (active)

O=C1CCCC2=C1C(c1ccc(O)c(O)c1)Nc1ccc3ncccc3c12 (configuration not stated)
IC50 [1]: 2.67 µM (active)

Cn1c2ccccc2c2cc(/C=N/NC(=O)c3cc(O)cc(O)c3)ccc21
IC50 [9]: 16.2 µM (active) | CC50 [10]: 12.8 µM (active) | IC50 [11]: 41.6 µM (active)

Fc1ccc(COc2ccc(-c3nnco3)cc2)cc1
IC50 (Protein skinhead-1): 5.67 µM (active)

CCn1c(CNc2ccc(Cl)cc2)nnc1SCc1ccc(Cl)cc1
AC50 [2]: 5.01 µM (active)

Cc1cccc(N=C2c3cc([N+](=O)[O-])ccc3-c3c2cc([N+](=O)[O-])cc3[N+](=O)[O-])c1
AC50 [2]: 16.6 µM (active) | IC50 (Nonstructural protein 1): 11.7 µM (active)

O=C(N/N=C/c1ccc(OCCCF)cc1)c1ccc(C(F)(F)F)cc1
IC50 [4]: 13.2 µM (active)

Cc1nn(CC(=O)Nc2ccc(N(C)C)cc2)c(C)c1[N+](=O)[O-]
IC50 (Large T antigen): 12.3 µM (active) | IC50 [1]: 7.62 µM (not active)

Cn1c(Cc2ccccc2)nnc1SCC(=O)Nc1ccc2c(c1)OCO2
IC50 (Protein skinhead-1): > 100 µM (inactive)

CCCCCCCCCCOC(=O)C[N+](C)(C)CC1CCCCC1O (configuration not stated)
EC50 [12]: > 50 µM (active)

Clc1ccc(OCCCN2CCCC2)cc1Cl
EC50 [12]: > 50 µM (active)

Cc1ccc(N(Cc2cc3cccc(C)c3nc2O)S(=O)(=O)c2ccccc2)c(C)c1
IC50 [9]: 4.45 µM (active) | IC50 [11]: 5.56 µM (active)

COc1ccccc1NC(=O)CN1CCC(c2nc3cc(C)ccc3[nH]2)CC1
EC50 [12]: > 50 µM (active)

Nc1cc(N2CCOCC2)c(Cl)cc1[N+](=O)[O-]
EC50 [12]: > 50 µM (active)

COc1ccc(-c2nc(CN3CCC(C(=O)NC4CCCC4)CC3)c(C)o2)cc1OC
EC50 [3]: 473 nM (active)

C[C@@H]1CN([C@H](C)CO)C(=O)c2cc(NC(=O)Nc3ccc(C(F)(F)F)cc3)ccc2O[C@@H](C)CCCCO[C@H]1CN(C)S(=O)(=O)c1ccc(Cl)cc1
AC50 (Paired box protein Pax-8): 2.41 µM (active) | AC50 [5]: > 70 µM (inactive) | AC50 [8]: 26.3 µM (active)

O=C(Nc1ccc(F)cc1)c1ccc2snnc2c1
EC50 [12]: > 50 µM (active)

COc1ccc(-n2c(C)cc(C(=O)C[N+]34CCN(CC3)CC4)c2C)cc1
IC50 [9]: 2.64 µM (active) | IC50 [11]: 2.73 µM (active)

c1ccc(-c2cc(-c3nn4c(-c5ccco5)nnc4s3)c3ccccc3n2)cc1
IC50 [4]: 16.6 µM (active)

COc1ccc2c(c1)[C@H]1[C@H](CO2)[C@H](c2ccccc2)[C@]2(C)C(=O)Nc3ccc(Br)cc3C(=O)N12
AC50 [2]: 1.59 µM (active)

CSC1=NCCN1CCOc1ccccc1
IC50 [9]: 6.77 µM (active) | IC50 [11]: 8.19 µM (active)

COc1ccc2c(c1OC)C(=O)OC2Nc1nc(-c2cc3cc(Br)ccc3oc2=O)cs1 (configuration not stated)
AC50 (HeLa): 290 µM (active) | CC50 [10]: 30.7 µM (active)

O=C(O)c1ccccc1-c1ccccc1C(=O)Nc1ccc2c(c1)oc(=O)c1ccccc12
IC50 (Protein skinhead-1): > 100 µM (inactive) | IC50 (Genome polyprotein): 56.3 µM (active)

Brc1ccc2nc(-c3ccccc3)c(Cc3ccsc3)n2c1
IC50 (Protein skinhead-1): > 100 µM (inactive)

COc1ccccc1-c1ccc2c(c1)[C@@H]1[C@@H](CCN1S(=O)(=O)c1ccccc1F)[C@H](CO)N2
AC50 (Paired box protein Pax-8): 6.87 µM (active) | AC50 [8]: 20.7 µM (active)

CCC(=O)c1ccc(OCC(=O)Nc2cc(S(=O)(=O)N3CCCCC3)ccc2N2CCN(CC)CC2)cc1
IC50 [9]: 3.32 µM (active) | IC50 [11]: 5.31 µM (active)

S=C(NCCc1c[nH]cn1)NC1CCCC1
EC50 [3]: 84 nM (active)

O=C1Oc2ccccc2C(=O)/C1=C/c1ccccc1O
IC50 [1]: 4.18 µM (active) | IC50 (Genome polyprotein): 25.2 µM (active)

CCCC(C)c1nnc(NC(=O)c2cc(C(=O)OC)cc([N+](=O)[O-])c2)s1 (configuration not stated)
IC50 (Fatty acid synthase): 7.04 µM (active) | IC50 [13]: 19.6 µM (active)
